Reference: patent EP0196574A2, “4,4'-Diaminodiphenyl compounds, process for their preparation and their use” (HOECHST AKTIENGESELLSCHAFT, priority 1985, dated 1986)

Tested on: Salmonella typhimurium (Stämme TA 98, TA 100, TA 1535, TA 1537, TA 1538)
Assay: Ames mutagenicity test
Format: cell-based
Settings: strains TA 98, TA 100, TA 1535, TA 1537, TA 1538, ohne und in Gegenwart von S-9-Mix; for Ames-Test: table of further examples
Excerpt: Die folgenden Beispiele sollen die Erfindung näher beschreiben. Der Mutagenitätstest wurde nach Ames mit Salmonella typhimurium (Stämme TA 98, TA 100, TA 1535, TA 1537, TA 1538) ohne und in Gegenwart von S-9-Mix durchgeführt (B.N. Ames et al., Mut. Res. Vol. 31, S. 347 - 364 (1975)).

Row | SMILES | Mutagenitätstest nach Ames | Ames-Test
1 | CC(C)c1cc(-c2ccc(N)c(C(C)C)c2)ccc1N [Beispiel 1, 3,3-Diisopropyl-benzidin-dichlorhydrat] | negativ | 
2 | CC(C)COc1cc(-c2ccc(N)c(OCC(C)C)c2)ccc1N [Beispiel 2, 3,3'-Di-isobutoxybenzidin] | negativ | 
3 | COCCOc1cc(-c2ccc(N)c(OCCOC)c2)ccc1N [Beispiel 3, 3,3'-Di-(2-methoxyethoxy)-benzidin] | negativ | 
4 | CCCc1cc(-c2ccc(N)c(CCC)c2)ccc1N [Beispiel 4] |  | negativ
5 | CCCCc1cc(-c2ccc(N)c(CCCC)c2)ccc1N [Beispiel 5] |  | negativ
6 | CC(C)Cc1cc(-c2ccc(N)c(CC(C)C)c2)ccc1N [Beispiel 6] |  | negativ
7 | CCC(C)c1cc(-c2ccc(N)c(C(C)CC)c2)ccc1N (stereo not shown) [Beispiel 7] |  | negativ
8 | CCCOc1cc(-c2ccc(N)c(OCCC)c2)ccc1N [Beispiel 8] |  | negativ
9 | CC(C)Oc1cc(-c2ccc(N)c(OC(C)C)c2)ccc1N [Beispiel 9] |  | negativ
10 | CCC(C)Oc1cc(-c2ccc(N)c(OC(C)CC)c2)ccc1N (stereo not shown) [Beispiel 10] |  | negativ
